From the supplement of paper PMC10307832

What was measured:
Experiment in all cases: relative viability (nuclei count vs DMSO), 5 days (fraction); higher = more cells survive
[1] = system: RERF-LC-KJ
Outline: (§1)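 Lung cancer cell lines, seeded in 1536-well plates, were treated the following day by pin tool with a single drug or with five library-drug doses (not always all listed) in √10 steps on top of a fixed anchor-drug dose. Cells were fixed and nuclei stained in one step after 5 days, and nuclei were counted. Relative viability is the nuclei count for treated wells divided by that for vehicle wells, reported as medians of duplicate plates.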

[2] = system: HCC-15
Outline: as §1

[3] = system: NCI-H2347
Outline: as §1

[4] = system: HCC-366
Outline: as §1

[5] = system: NCI-H1437
Outline: as §1

[6] = system: PC-14
Outline: as §1

[7] = system: NCI-H460
Outline: as §1

[8] = system: H3255
Outline: as §1

[9] = system: SW 900
Outline: as §1

[10] = system: NCI-H727
Outline: as §1

[11] = system: NCI-H1648
Outline: as §1

[12] = system: ABC-1
Outline: as §1

[13] = system: HARA
Outline: as §1

[14] = system: COR-L 105
Outline: as §1

[15] = system: NCI-H1915
Outline: as §1

[16] = system: NCI-H838
Outline: as §1

[17] = system: NCI-H1944
Outline: as §1

[18] = system: LU99A
Outline: as §1

[19] = system: NCI-H1734
Outline: as §1

[20] = system: NCI-H1666
Outline: as §1

[21] = system: LC-2-ad
Outline: as §1

[22] = system: NCI-H650
Outline: as §1

[23] = system: CAL-12T
Outline: as §1

`Oc1nc(-c2ccc(C(F)(F)F)cc2)nc2c1CSCC2` [XAV939] + O=C(c1cc(Cc2n[nH]c(=O)c3ccccc23)ccc1F)N1CCN(C(=O)C2CC2)CC1 [Olaparib] (partner 8 µM) gave a relative viability ([1]; first compound 0.08 µM) of 0.868, a relative viability ([1]; first compound 0.253 µM) of 0.763 and a relative viability ([1]; first compound 0.8 µM) of 0.617. For the same molecule, the relative viability ([1]; first compound 2.53 µM) was 0.292, the relative viability ([2]; first compound 0.08 µM) was 0.693 and the relative viability ([2]; first compound 0.253 µM) was 0.717. The relative viability ([2]; first compound 0.8 µM) was 0.67, the relative viability ([2]; first compound 2.53 µM) was 0.676 and the relative viability ([3]; first compound 0.08 µM) was 0.667. For the same molecule, the relative viability ([3]; first compound 0.253 µM) was 0.543, the relative viability ([3]; first compound 0.8 µM) was 0.569 and the relative viability ([3]; first compound 2.53 µM) was 0.517. The relative viability ([4]; first compound 0.08 µM) was 0.414, the relative viability ([4]; first compound 0.253 µM) was 0.326 and the relative viability ([4]; first compound 0.8 µM) was 0.283. For the same molecule, the relative viability ([4]; first compound 2.53 µM) was 0.175, the relative viability ([5]; first compound 0.08 µM) was 0.631 and the relative viability ([5]; first compound 0.253 µM) was 0.593. For the same molecule, the relative viability ([5]; first compound 0.8 µM) was 0.558, the relative viability ([5]; first compound 2.53 µM) was 0.355 and the relative viability ([6]; first compound 0.08 µM) was 0.305. For the same molecule, the relative viability ([6]; first compound 0.253 µM) was 0.208, the relative viability ([6]; first compound 0.8 µM) was 0.313 and the relative viability ([6]; first compound 2.53 µM) was 0.248. The relative viability ([7]; first compound 0.08 µM) was 0.58, the relative viability ([7]; first compound 0.253 µM) was 0.35 and the relative viability ([7]; first compound 0.8 µM) was 0.395. The relative viability ([7]; first compound 2.53 µM) was 0.271, the relative viability ([8]; first compound 0.08 µM) was 0.598 and the relative viability ([8]; first compound 0.253 µM) was 0.563. For the same molecule, the relative viability ([8]; first compound 0.8 µM) was 0.553, the relative viability ([8]; first compound 2.53 µM) was 0.51 and the relative viability ([9]; first compound 0.253 µM) was 0.844. It also gave a relative viability ([9]; first compound 0.8 µM) of 0.832, a relative viability ([9]; first compound 2.53 µM) of 0.421 and a relative viability ([10]; first compound 0.08 µM) of 0.706. For the same molecule, the relative viability ([10]; first compound 0.8 µM) was 0.696, the relative viability ([10]; first compound 2.53 µM) was 0.678 and the relative viability ([11]; first compound 0.253 µM) was 0.63. It also gave a relative viability ([11]; first compound 0.8 µM) of 1.12, a relative viability ([11]; first compound 2.53 µM) of 0.355 and a relative viability ([12]; first compound 0.253 µM) of 0.792. It also gave a relative viability ([12]; first compound 0.8 µM) of 1.25, a relative viability ([12]; first compound 2.53 µM) of 0.61 and a relative viability ([13]; first compound 0.08 µM) of 0.832. The relative viability ([13]; first compound 0.253 µM) was 0.862, the relative viability ([13]; first compound 0.8 µM) was 0.759 and the relative viability ([13]; first compound 2.53 µM) was 0.661. For the same molecule, the relative viability ([14]; first compound 0.08 µM) was 0.57, the relative viability ([14]; first compound 0.253 µM) was 0.486 and the relative viability ([14]; first compound 0.8 µM) was 0.494. It also gave a relative viability ([14]; first compound 2.53 µM) of 0.561, a relative viability ([15]; first compound 0.08 µM) of 0.247 and a relative viability ([15]; first compound 0.253 µM) of 0.256. It also gave a relative viability ([15]; first compound 0.8 µM) of 0.239, a relative viability ([15]; first compound 2.53 µM) of 0.275 and a relative viability ([16]; first compound 0.08 µM) of 0.755. For the same molecule, the relative viability ([16]; first compound 0.253 µM) was 0.662, the relative viability ([16]; first compound 0.8 µM) was 0.597 and the relative viability ([16]; first compound 2.53 µM) was 0.398. It also gave a relative viability ([17]; first compound 0.08 µM) of 0.421, a relative viability ([17]; first compound 0.253 µM) of 0.279 and a relative viability ([17]; first compound 0.8 µM) of 0.365. It also gave a relative viability ([17]; first compound 2.53 µM) of 0.342, a relative viability ([18]; first compound 0.08 µM) of 0.258 and a relative viability ([18]; first compound 0.253 µM) of 0.257. The relative viability ([18]; first compound 0.8 µM) was 0.271, the relative viability ([18]; first compound 2.53 µM) was 0.258 and the relative viability ([19]; first compound 0.08 µM) was 0.655. It also gave a relative viability ([19]; first compound 0.253 µM) of 0.538, a relative viability ([19]; first compound 0.8 µM) of 0.673 and a relative viability ([19]; first compound 2.53 µM) of 0.602. It also gave a relative viability ([20]; first compound 0.08 µM) of 0.748, a relative viability ([20]; first compound 0.253 µM) of 0.741 and a relative viability ([20]; first compound 0.8 µM) of 0.745. It also gave a relative viability ([20]; first compound 2.53 µM) of 0.754, a relative viability ([21]; first compound 0.08 µM) of 0.659 and a relative viability ([21]; first compound 0.253 µM) of 0.652. The relative viability ([21]; first compound 0.8 µM) was 0.685, the relative viability ([21]; first compound 2.53 µM) was 0.553 and the relative viability ([22]; first compound 0.08 µM) was 0.413. It also gave a relative viability ([22]; first compound 0.253 µM) of 0.426, a relative viability ([22]; first compound 0.8 µM) of 0.47 and a relative viability ([22]; first compound 2.53 µM) of 0.372. It also gave a relative viability ([23]; first compound 0.08 µM) of 0.788, a relative viability ([23]; first compound 0.253 µM) of 0.699 and a relative viability ([23]; first compound 0.8 µM) of 0.689. For the same molecule, the relative viability ([23]; first compound 2.53 µM) was 0.654.
